Experimental data taken from patent publication US20050209151A1, “Use of peptides” (priority 1999, published 2005).
Where no end group is shown, it is not given here.

Tests used:
[1] = test system: β-endorphin concentration in blood; test: β-endorphin concentration in blood after intraventricular administration of PrRP-31; assay type: in vivo, Wistar rats; settings: PrRP-31 1, 3 or 10 nmol intraventricular
Experimental: (§1) Adult male Wistar rats (body weight 350 to […] at surgery) were anesthetized with intraperitoneal administration of 50 mg/kg pentobarbital and immobilized in stereotaxic instruments. The incisor bar was set 3.3 mm below the interaural line. The skull was exposed, and a hole was drilled with a dental drill to implant a guide cannula AG-12 (inside diameter of 0.4 mm, outside diameter of 0.5 mm, by Eicom) in the third ventricle. Anchor screws were implanted in four surrounding locations. The tip of the stainless steel guide cannula AG-12 was inserted into position in the upper part of the third ventricle. The stereotaxic coordinates were AP: +7.1 mm, L: 0.0 mm, H: +2.0 mm, from the interaural line, according to the atlas of Paxinos and Watson (1986). The guide cannula was secured to the skull with instant adhesive, dental cement, and the anchor screws. A stainless-steel dummy cannula AD-12 (0.35 mm outside diameter, by Eicom) was then inserted into the guide cannula and secured with a cap nut (by Eicom). The rats were post-operatively housed in individual cages.
(§2) The animals were allowed to recover for about 1 week after the implantation of the guide cannulas, and blood samples were taken as they were allowed to move freely. The rats were then anesthetized with intraperitoneal administration of 50 mg/kg pentobarbital. […]

[2] = test system: ACTH concentration in blood; test: ACTH concentration in blood after intraventricular administration of PrRP-31; assay type: in vivo, Wistar rats; settings: PrRP-31 1, 3 or 10 nmol intraventricular
Experimental: as §1, §2

[3] = plasma radioimmunoassay, 0-60 min

PrRP-31: amide form of the peptide consisting of the amino acid sequence in SEQ ID NO. 32 (SRTHRHSMEIRTPDINPAWYASRGIRPVGRF-NH2)
time of peak β-endorphin concentration in blood after dosing [1]: 15 min
β-endorphin concentration in blood compared to the control group [1, 3]: higher concentration-dependent increases
time of peak ACTH concentration in blood after dosing [2]: 15 min
ACTH concentration in blood compared to the control group [2, 3]: higher concentration-dependent increases
